Data set [1] has as its system CGS 21680-induced catalepsy. Kind of data set: Activity on CGS 21680-induced catalepsy. Type of data set: in vivo, mice. The note with it: for inhibition in vivo at 10 mg/kg: Mus musculus, po, read-out: Remission ratio (%); for Total score: total catalepsy score of 10 mice (maximum 50 points; 40 points or less = positive), one hour after administration. The protocol: Parkinson's disease is a motor disorder based on degeneration and cell death of the nigrostriatal dopaminergic neurons. When CGS 21680 (adenosine A2A receptor agonist) is administered into the intracerebral ventricle, the inhibitory synaptic transmission of GABA in the medium sized spiny neurons in the corpus striatum is inhibited directly via the adenosine A2A receptor [Journal of Neuroscience, vol. 16, p. 605 (1996)]. Accordingly, it is concidered that the adenosine A2A receptor agonists positively regulate the output of the GABAergic neurons from the corpus striatum to the globus pallidus lateralis, and, as a result, catalepsy is induced by the administration of CGS 21680.
The test was carried out using ten 5-week age male ddY mice (22-25 g in body weight, Japan SLC) per group. CGS 21680 (produced by RBI Co) was dissolved in physiological saline (produced by Otsuka Pharmaceutical Co., Ltd.), and 10 μg/20 μL of the solution was injected into mouse intracerebral ventricle. Each test compound was used by suspending it in distilled water containing 0.3% of polyoxylene (20) sorbitan monooleate (referred to as “Tween 80” hereinafter) (produced by Otsuka Pharmaceutical Co., Ltd.). The suspension containing each test compound or a solution containing no test Compound (distilled water containing 0.3% of Tween 80; used as a control) was orally administered (0.1 mL per 10 g of mouse body weight) 30 minutes before the injection of CGS 21680 into the intracerebral ventricle. One hour after the administration of the each test compound, only forelimbs or only hindlimbs of each mouse were laid on a vertically arranged stand made of acryl and having a size of 4.5 cm in height and 1.0 cm in width to measure catalepsy symptoms. All of the test compounds were administered orally in a dose of 10 mg/kg.
The criteria of the catalepsy score are shown below.
The effect was decided by a total catalepsy score of 10 mice in one group (the maximum score: 50 points). When the total score was 40 points or less, the activity of the compounds was decided positive. The number of the animals showing remission of catalepsy was expressed by the number of cases showing a catalepsy score of 4 points or less in 10 cases. The catalepsy remission ratio was expressed as the percentage of the total score in the test compound-administered group to the total score in the control group.

[2] abbreviates: from total score of test group and control group, 10 mg/kg orally.

Structures are written as SMILES. Structures can show the parent of a compound that is named as a salt. Where two headings read alike, the source gives them in different places.

The compound `COCc1cc2nc(-c3ccco3)nn2c(N)n1` [Compound 23, 5-Amino-2-(2-furyl)-7-methoxymethyl[1,2,4]triazolo[1,5-c]pyrimidine] showed a melting point of 167.2 to 167.6 °C. Same read-out and setting: then `Nc1nc(COc2ccccn2)cc2nc(-c3ccco3)nn12` [Compound 32, 5-Amino-2-(2-furyl)-7-(pyridin-2-yloxymethyl)[1,2,4]-triazolo[1,5-c]pyrimidine], with 229 to 229.2 °C; and `Nc1nc(CN2CCN(CC3CC3)CC2)cc2nc(-c3ccco3)nn12` (as salt: hydrochloride) [Compound 50, 5-Amino-7-[4-(cyclopropylmethyl)piperazin-1-ylmethyl]-2-(2-furyl)[1,2,4]triazolo[1,5-c]pyrimidine dihydrochloride], with 270 °C (dec.). The same measure, in the same setting: then `Nc1nc(-c2ccc(C=O)cc2)cc2nc(-c3ccco3)nn12` [Compound 10, 5-Amino-7-(4-formylphenyl)-2-(2-furyl)[1,2,4]triazolo[1,5-c]pyrimidine], with 273.5 to 274 °C; and `CC(=O)NCCNCc1cc2nc(-c3ccco3)nn2c(N)n1` [Compound 45, 5-Amino-7-[2-(N-acetylamino)ethylaminomethyl]-2-(2-furyl)-[1,2,4]triazolo[1,5-c]pyrimidine], with 190.5 to 190.9 °C; and `Nc1nc(COc2ccncc2)cc2nc(-c3ccco3)nn12` [Compound 33, 5-Amino-2-(2-furyl)-7-(pyridin-4-yloxymethyl)[1,2,4]-triazolo[1,5-c]pyrimidine], with above 300 °C. Regarding `Nc1nc(-c2cccc(C=O)c2)cc2nc(-c3ccco3)nn12` [Compound 18, 5-Amino-7-(3-formylphenyl)-2-(2-furyl)[1,2,4]triazolo[1,5-c]pyrimidine], the melting point is 212.8 to 213.2 °C. `CCN1CCN(Cc2cc3nc(-c4ccco4)nn3c(N)n2)CC1` (as salt: hydrochloride) [Compound 48, 5-Amino-7-(4-ethylpiperazin-1-ylmethyl)-2-(2-furyl)[1,2,4]-triazolo[1,5-c]pyrimidine trihydrochloride]: the melting point lay in the range of 262 to 262.4 °C.

Regarding `Cc1noc(C)c1-c1cc2nc(-c3ccco3)nn2c(N)n1` [Compound 57, 5-Amino-7-(3,5-dimethylisoxazol-4-yl)-2-(2-furyl)[1,2,4]-triazolo[1,5-c]pyrimidine], the melting point was in the range of 227.8 to 228.5 °C.

`Nc1nc(C(=O)NCCCn2ccnc2)cc2nc(-c3ccco3)nn12` [Compound 90, 5-Amino-2-(2-furyl)[1,2,4]triazolo[1,5-c]pyrimidine-7-carboxylic acid [3-(1-imidazolyl)propyl]amide] came in with a melting point of 198.5 to 198.8 °C. On the same count and under the same terms, the same measure for `Nc1nc(C(=O)NCC2CCCCC2)cc2nc(-c3ccco3)nn12`: 273.5 to 274 °C; for `COc1cc(CNCc2ccccc2-c2cc3nc(-c4ccco4)nn3c(N)n2)cc(OC)c1` (as salt: hydrochloride): 213.5 to 214.3 °C. On the same count and under the same terms, then `Nc1nc(-c2ccc(CO)cc2)cc2nc(-c3ccco3)nn12` [Compound 61, 5-Amino-2-(2-furyl)-7-(4-hydroxymethylphenyl)[1,2,4]-triazolo[1,5-c]pyrimidine], with 239.6 to 239.9 °C; and `Nc1nc(-c2ccc(CNCCCN3CCCC3=O)cc2)cc2nc(-c3ccco3)nn12` (as salt: hydrochloride) [Compound 14, 5-Amino-2-(2-furyl)-7-{4-[3-(2-oxopyrrolidin-1-yl)propylaminomethyl]phenyl}[1,2,4]triazolo[1,5-c]pyrimidine monohydrochloride], with 269.2 to 269.8 °C; and `Nc1nc(C(=O)NCc2ccc(F)c(F)c2)cc2nc(-c3ccco3)nn12` [Compound 82, 5-Amino-2-(2-furyl)[1,2,4]triazolo[1,5-c]pyrimidine-7-carboxylic acid (3,4-difluorobenzyl)amide], with 254.5 to 254.9 °C.

Take `CN(C)CCN(Cc1ccccc1)C(=O)c1cc2nc(-c3ccco3)nn2c(N)n1`: the melting point was 215.2 to 215.4 °C.

In turn, `Nc1nc(CNCCc2ccccn2)cc2nc(-c3ccco3)nn12` (as salt: hydrochloride) [Compound 44, 5-Amino-7-[2-(2-pyridyl)ethylaminomethyl]-2-(2-furyl)-[1,2,4]triazolo[1,5-c]pyrimidine dihydrochloride] yielded a melting point of 249.5 to 249.7 °C. For `COCC(C)NCc1ccccc1-c1cc2nc(-c3ccco3)nn2c(N)n1` (racemic) (as salt: hydrochloride) [Compound 9, (±)-5-Amino-2-(2-furyl)-7-[{2-[(2-methoxy-1-methylethyl)aminomethyl]phenyl}(1,2,4]triazolo[1,5-c]pyrimidinemonohydrochloride], the melting point was in the range of 178.9 to 179.7 °C. Regarding `COc1ccc(CNCc2ccc(-c3cc4nc(-c5ccco5)nn4c(N)n3)cc2)cc1OC` (as salt: hydrochloride), the melting point lay in the range of 256.2 to 256.8 °C. The same measure, in the same setting: then `Nc1nc(-c2ccccc2CNCCc2ccccn2)cc2nc(-c3ccco3)nn12` [Compound 4, 5-Amino-2-(2-furyl)-7-{2-[2-(2-pyridyl)ethylaminomethyl]-phenyl}[1,2,4]triazolo[1,5-c]pyrimidine], with 179.2 to 180 °C; and `CCN1CCN(Cc2ccc(-c3cc4nc(-c5ccco5)nn4c(N)n3)cc2)CC1` (as salt: hydrochloride), with 265 °C (dec.). In turn, `COc1ccc(CNCc2ccccc2-c2cc3nc(-c4ccco4)nn3c(N)n2)cc1OC` [Compound 3, 5-Amino-7-[2-(3,4-dimethoxybenzylaminomethyl)phenyl]-2-(2-furyl) [1,2,4]triazolo[1,5-c]pyrimidine] displayed a melting point of 168 to 168.7 °C. On to `Nc1nc(C2=CCN(Cc3csnn3)CC2)cc2nc(-c3ccco3)nn12` [Compound 72, 5-Amino-2-(2-furyl)-7-[1-(1,2,3-thiadiazol-4-yl)methyl-1,2,3,6-tetrahydropyridin-4-yl][1,2,4]triazolo[1,5-c]-pyrimidine], for which, in data set [1], the inhibition in vivo at 10 mg/kg was found to be 100%. Further, in data set [1] (10 mg/kg orally), the Total score is on record as 0.

For `CN(C(=O)c1cc2nc(-c3ccco3)nn2c(N)n1)c1ccc(Cl)nc1` [Compound 118, 5-Amino-2-(2-furyl)[1,2,4]triazolo[1,5-c]pyrimidine-7-carboxylic acid [N-(6-chloropyridin-3-yl)-N-methyl]amide], the inhibition in vivo at 10 mg/kg in data set [1] (setting [2]) worked out at 94%. Besides, the Total score in data set [1] (10 mg/kg orally) is given as 3.

Turning to `Nc1nc(C(=O)NCCc2ccccn2)cc2nc(-c3ccco3)nn12` [Compound 84, 5-Amino-2-(2-furyl) [1,2,4]triazolo[1,5-c]pyrimidine-7-carboxylic acid [2-(2-pyridyl)ethyl]amide], in data set [1] (setting [2]), the inhibition in vivo at 10 mg/kg came to 92%. In addition, in data set [1] (10 mg/kg orally), the Total score was 4. Take `COc1ccc(CN(C)Cc2cc3nc(-c4ccco4)nn3c(N)n2)cc1OC` [Compound 35, 5-Amino-7-[(N-methyl-3,4-dimethoxybenzylamino)methyl]-2-(2-furyl)[1,2,4]triazolo[1,5-c]pyrimidine monohydrochloride]: the inhibition in vivo at 10 mg/kg in data set [1] worked out at 90%. In addition, the Total score in data set [1] (10 mg/kg orally) worked out at 5. Consider `CN(CCc1cccnc1)C(=O)c1cc2nc(-c3ccco3)nn2c(N)n1` [Compound 138, 5-Amino-2-(2-furyl)[1,2,4]triazolo[1,5-c]pyrimidine-7-carboxylic acid {N-methyl-N-[2-(3-pyridyl)ethyl]}amide], for which the inhibition in vivo at 10 mg/kg in data set [1] (setting [2]) was found to be 78%. For the same compound, the Total score in data set [1] (10 mg/kg orally) came out at 11. For `Nc1nc(-c2cccnc2)cc2nc(-c3ccco3)nn12` [Compound 53, 5-Amino-2-(2-furyl)-7-(3-pyridyl) [1,2,4]triazolo[1,5-c]-pyrimidine], the inhibition in vivo at 10 mg/kg in data set [1] (setting [2]) was found to be 84%. The compound further displayed a Total score in data set [1] (10 mg/kg orally) of 8. On the same counts, the results for `Cc1ccc(CN(C)C(=O)c2cc3nc(-c4ccco4)nn3c(N)n2)cn1` [Compound 130, 5-Amino-2-(2-furyl)[1,2,4]triazolo[1,5-c]pyrimidine-7-carboxylic acid [N-methyl-N-(6-methylpyridin-3-ylmethyl)]-amide] are 70% and 15. On to `COc1ccc(CNC(=O)c2cc3nc(-c4ccco4)nn3c(N)n2)cc1OC` [Compound 80, 5-Amino-2-(2-furyl)[1,2,4]triazolo[1,5-c]pyrimidine-7-carboxylic acid (3,4-dimethoxybenzyl)amide], for which the inhibition in vivo at 10 mg/kg in data set [1] (setting [2]) amounted to 88%. In addition, the Total score in data set [1] (10 mg/kg orally) is 6.

In general, melting point refers to the temperature, or range, at which the solid turns liquid.

Source of the values: patent publication US20060058320A1, “[1,2,4] Triazolo[1,5-c]pyrimidine derivatives” (KYOWA HAKKO KOGYO CO., LTD., priority 2002, published 2006).
